Data taken from the METLIN SMRT retention time set (Domingo-Almenara et al. 2019).

Assay: gradient 5% acetonitrile 3 min, to 50% in 2 min, to 85% in 15 min, held 3 min, 100 µL/min
Conditions: column: Zorbax Extend-C18 2.1 x 50 mm; eluents: water / acetonitrile, 0.1% formic acid
How it was run: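 The mobile phases were water and acetonitrile, each with 0.1% formic acid, pumped at 100 μL/min through a Zorbax Extend-C18 column (2.1 × 50 mm, 1.8 μm). Pure standards were injected as mixtures of ~100 molecules and detected by a quadrupole time-of-flight mass spectrometer in positive and negative ionization mode. Retention time came from computationally picked adduct peaks, each inspected by hand.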

Structure (SMILES)	RP-LC retention time [s]
O=C(Nc1cccc(-c2ccc(N3CCCC3)nn2)c1)c1ccccc1F	647
CCCn1c(=O)sc2cc(S(=O)(=O)N3CCC(C(=O)N4CCCCC4)CC3)ccc21	876
CCN1CCn2cc(S(=O)(=O)N3CCN(c4ccccc4Cl)CC3)cc2C1=O	892
O=c1ccc(-c2ccccc2)nn1Cc1nc(-c2ccc(Br)cc2)no1	1100
CSc1ccc(-c2noc(Cc3nnc(-c4ccc(F)cc4)o3)n2)cc1	1070
Cc1ccc(NC(=O)C2C(=O)NC3(C)CC2c2ccccc2O3)c(C)c1 (stereo not drawn)	912
O=C(NCc1ccccn1)c1cc(-c2cccnc2)nc2ccc(Cl)cc12	642
COc1ccc(C2CCCN2C(=O)c2cnn3cccnc23)cc1 (stereo not drawn)	694
O=C1[C@H]2CN(Cc3cc(F)c(F)c(F)c3)C[C@H]2C(=O)N1CCc1ccccc1	982
Cc1cccc(C)c1NC(=O)Cn1ncc2c(N3CCN(c4ccccn4)CC3)ncnc21	606
CCN1c2ccc(F)cc2C(=O)NC12CCN(C(=O)c1ccccc1OC)CC2	759
CCCNC(=O)C1CCN(c2ccc(SCC(=O)Nc3ccc(C)c(Cl)c3)nn2)CC1	715
O=C(N1CCOCC1)C1(c2cc(-c3ccco3)on2)CC1	673
CCN(CC)C(=O)Cn1c(Cc2ccc(Cl)cc2)nc2ccccc21	693
CCOc1ccc(-c2noc(CN3N=NC4C(=O)N(c5ccc(C(C)C)cc5)C(=O)C43)n2)cc1OC (stereo not drawn)	1060
CSc1ccc(N2C=NS(=O)(=O)c3cccnc32)cc1	810
CC(=O)N1CCc2c(c(CNC(=O)Cc3c(C)noc3C)nn2C)C1	570
O=C(c1cc(F)ccc1F)N1CCN(c2cc(-c3ccc(Cl)cc3)[nH]n2)CC1	847
Cc1noc(C)c1Cc1c(C(=O)NCCc2noc(C3CC3)n2)noc1C	774
CCN1C(=O)COc2ccc(-c3noc(-c4cccc(C)c4)n3)cc21	1210
COCCC(=O)Nc1cnn(-c2ncc(N3CCCC3)cn2)c1	642
CCOc1ccccc1C1NC(=O)N(CC(=O)Nc2ccc(C(F)(F)F)cc2)C2=C1C(=O)OC2 (stereo not drawn)	888
CCc1cccc(N2C(=O)CN(S(C)(=O)=O)CC2(C)C(=O)NCc2ccc(C)cc2)c1 (stereo not drawn)	905
CCOc1nc2ccccc2nc1N1CCCC(C(=O)NCc2ccco2)C1 (stereo not drawn)	1020

Structure (SMILES)	RP-LC retention time [s]
Cc1ccc(CNC2=NCCNC23CCN(S(=O)(=O)c2ccc(F)cc2)CC3)cc1	733
CCn1c(=O)sc2cc(S(=O)(=O)N3CCC(C(=O)N4CCCC4)CC3)ccc21	761
CCc1ccc(CNc2nc3ccccc3n2CCN(CC)CC)cc1	558
O=C(NCc1ccc(F)cc1Cl)c1ccc2c(c1)ncn2CCN1CCCC1	598
Cc1nc2nc(C)c(CCC(=O)N3CCC(Cc4ccccc4)CC3)c(C)n2n1	804
Cc1cc(S(=O)(=O)N2CCCC2c2nc(-c3cccc(Cl)c3)no2)ccc1F (stereo not drawn)	1240
CN1C(=O)Cc2cc(C(=O)NCc3ccccc3C(F)(F)F)ccc21	773
CN(C)CCCNc1oc(-c2ccccc2)nc1S(=O)(=O)c1ccc(F)cc1	692
CCc1ccc(-c2nc3ccc(C)cn3c2CN2CCC(F)(COC)CC2)cc1	642
CCOc1ccc(-n2nnc(-c3nc(-c4ccccc4OC)cs3)c2N)cc1	1170
CCOCCCn1c(SCc2nc(-c3ccc(F)cc3)no2)nc2ccccc2c1=O	1150
CCN(Cc1cn(CC)nc1C)C(=O)CC1=C2CCCCC2N(C)C1=O (stereo not drawn)	648
COc1ccc(CN(Cc2ccccc2)Cc2cc(=O)n3ccc(C)cc3n2)cc1OC	662
CCC1Oc2ccc(S(=O)(=O)N3CCC(C(=O)N(C)Cc4ccco4)CC3)cc2NC1=O (stereo not drawn)	800
Cc1ccc(S(=O)(=O)N(C)CC2(C)CCOCC2)cc1F	957
CS(=O)(=O)N1CCCN(C(=O)c2ccc(F)cc2)CC1	670
Cc1nc(-c2ccccc2)cc2nn(CC(=O)N3CCC(C)CC3)c(=O)n12	903
Cc1cc(N2CCC(C)CC2)n2ncnc2n1	790
CSc1ccc(-c2nc3ncccn3c2Nc2cccc(C)c2)cc1	843
COc1cc(NC(=O)CN2C(=O)CC(c3ccccc3)=Nc3ccccc32)cc(OC)c1	973
COc1cccc(-c2noc(C3CCCN3C(=O)Nc3ccc(OC)c(OC)c3)n2)c1 (stereo not drawn)	855
O=C(Nc1ccc(S(=O)(=O)N2CCOCC2)cc1)c1ccc(Br)s1	858
CCc1nc(C2CCN(C(=O)C3(c4ccc(OC)cc4)CC3)CC2)n[nH]1	551

Further lines, results first:

RP-LC retention time [s]	Structure (SMILES)
698	Cc1ccc(NC(=O)C2CCN(S(=O)(=O)c3ccc4c(c3)CCCC(=O)N4)CC2)cc1N(C)C
662	Cc1c(Cl)cccc1NC(=O)CN1CCc2[nH]c3c(C)cc(F)cc3c(=O)c2C1
578	Cc1cccc(NC(=O)Nc2cnc3c(c2)CCC3)c1
648	Cc1ccc(CNC(=O)c2ccc3c(c2)CN(Cc2scnc2C)CCO3)cc1
795	COc1cccc(S(=O)(=O)N2CCN(c3cc(C)nc(NC4CCCCC4)n3)CC2)c1
795	CCOCC(=O)N1CCCN(C2=NS(=O)(=O)C(c3ccc(C)c(C)c3)=C2C)CC1
650	CCC(C(=O)N1CCN(c2cc(C)n3c(C)nnc3n2)CC1)c1ccccc1 (stereo not drawn)
649	O=C1CCc2cc(NC(=O)c3cncc(Br)c3)ccc2N1
886	CCC(=O)N1CCc2sc(S(=O)(=O)N3CCN(c4ccc(OC)cc4)CC3)cc2C1
679	CCOC(=O)N1CCN(c2ncc(C(=O)Nc3ccc(OC)cc3)c(N)n2)CC1
689	CCn1cc(-c2ccncc2)cc1C(=O)NCc1ccc(SC)cc1
1190	CCn1c(=O)c(C)nc2cc(-c3noc(-c4cccc(C)c4)n3)ccc21
539	Cc1ccc(CN2CCC3(CC2)CC(O)(c2ccccn2)CCO3)nc1 (stereo not drawn)
756	Cc1c(NC(=O)c2sc3cc(F)ccc3c2Cl)c(=O)n(-c2ccccc2)n1C
756	CCCCNC(=O)C1CCCN(C(=O)c2[nH]c(C)c(C(=O)OCC)c2C)C1 (stereo not drawn)
1150	COc1cccc(-c2nc(C3CCN(S(=O)(=O)c4ccc(F)c(C)c4)CC3)no2)c1
776	O=c1c2cc3c(cc2nc(SCc2nc(-c4ccccc4)no2)n1Cc1ccncc1)OCO3
807	O=C(Nc1cccc(Oc2ccccn2)c1)c1c2c(nn1C1CCS(=O)(=O)C1)CCC2 (stereo not drawn)
656	CN(CC1CCOC1)C(=O)Nc1ccccc1F (stereo not drawn)
890	O=C(Nc1ccc2c(c1)OCO2)C(=O)c1c[nH]c2ccccc12
1280	CCc1ccc(-c2noc(CSc3nc4cc5c(cc4c(=O)n3CC3CCCO3)OCO5)n2)cc1 (stereo not drawn)

RP-LC retention time [s]	Structure (SMILES)
741	Cc1cc(C)c(S(=O)(=O)Nc2ccc(-c3ccc4nnc(C)n4n3)cc2)cc1C
619	Cc1cnc(Nc2ccc(OCCN3CCCC3)cc2)nc1Nc1cccc(S(=O)(=O)NC(C)(C)C)c1
575	O=C1CCC(C(=O)N2CCC3(CCC3O)CC2)=NN1 (stereo not drawn)
896	COc1ccc(N2C(=O)CCC(C(=O)N3CC(C)CC(C)C3)C2c2ccc(F)cc2)cc1 (stereo not drawn)
752	Cc1scc2nc(C3CCC3)nc(N3CCC(C(=O)NC4CCCCC4)CC3)c12
638	CCCN1CCN(C(=O)CSCc2nc3cccnc3n2C2CCCCC2)CC1
741	O=C(Nc1ccc2c(c1)OCO2)C1CCN(C(=O)c2ccccc2F)CC1
891	COc1ccc(NC(=O)Cn2c(=O)n(-c3ccc(C)cc3)c(=O)c3c2cc(C)n3C)cc1Cl
686	CCCNc1cc(N2CCC(CCC(=O)NCc3ccc(F)cc3)CC2)ncn1
858	CCc1nnc(-c2ccc3ccn(CC(=O)N4CCN(c5ccccc5)CC4)c3c2)o1
921	CCOC(=O)C1CCN(C(=O)C(C)n2c(=O)c(C(F)(F)F)nc3ccccc32)CC1 (stereo not drawn)
754	Cc1ccc2c(c1)C1CC(C)(O2)N(c2cccc(C(=O)N3CCCC3)c2)C(=O)N1 (stereo not drawn)
1330	CC(C)c1csc(-c2csc(S(=O)(=O)N3CCN(c4ccccc4F)CC3)c2)n1
682	COc1ccccc1NC(=O)CN1CCC(c2nc(-c3cccs3)no2)CC1
1380	Cc1nn(-c2ccccc2)c2sc(C(=O)Oc3ccc(F)cc3)cc12
587	Cc1cnc(C2CC2)n1C1CCCN(C(=O)NC(C)C)C1 (stereo not drawn)
807	CCCn1c(=O)sc2cc(S(=O)(=O)N3CCC(C(=O)N4CCCC4)CC3)ccc21
1220	COc1ccccc1-c1csc(-c2nnn(-c3ccc(C)c(C)c3)c2N)n1
853	COc1cc2c(cc1CNC(=O)Cn1cc(C#N)c3ccccc31)OCCCO2
1300	CCOc1ccc(-c2cc3c(=O)n(Cc4nc(-c5ccc(CC)cc5)no4)ncn3n2)cc1
